Experiment: Stroke statin response (SSR) in the CARE pravastatin trial: pravastatin-treated versus placebo-treated, by SNP genotype
Format: in vivo, human
Conditions: for HR (hazard ratio for stroke, pravastatin vs placebo): rs10757274 (hCV26505812), mode GEN, genotype AA, placebo = ref
Description: (hCV26505812) for association with SSR in CARE (Table 37) and PROSPER (Table 38), including both unadjusted and adjusted analyses (adjusted for factors such as age, gender, smoking status, hypertension, diabetes, BMI, and LDL and HDL levels). Table 37 provides results in CARE, and Table 38 provides results in PROSPER (whether each analysis is unadjusted or adjusted is indicated in the “adjust” column in Table 37, or by “unadj” and “adj” column labels in Tables 38). With respect to Tables 22-32 and 37-38, the columns labeled “Genotype” (in Tables 22-28 and 37), “Geno_Placebo” (in Tables 29-30 and 38), and “Geno_Resp” (in Tables 31-32 and 38) indicate the genotype which the given stroke risk or SSR results correspond to. […] See Example Six below for further information relating to Tables 22-32 and 37-38. […] As used herein, the term “benefit” (with respect to a preventive or therapeutic drug treatment) is defined as achieving a reduced risk for a disease that the drug is intended to treat or prevent (e.g., stroke) by administrating the drug treatment, compared with the risk for the disease in the absence of receiving the drug treatment (or receiving a placebo in lieu of the drug treatment) for the same genotype. The term “benefit” may be used herein interchangeably with terms such as “respond positively” or “positively respond”. For stroke risk and statin response associations based on samples from the CARE and PROSPER trials described herein, stroke risk is assessed by comparing the risk of stroke for a given genotype with the risk of stroke for a reference genotype either in the placebo arm of the trial or in the whole study population of the trial, and statin response is assessed by comparing the risk of stroke in the pravastatin arm of the trial with the risk of stroke in the placebo arm of the trial for the same genotype. […] In CARE, SNPs were analyzed for association with stroke risk or SSR. […] Also in the CARE and PROSPER trials, the chromosome 9p21 SNP […] (hCV26505812) was analyzed further for association with SSR, including unadjusted and adjusted analysis. Adjusted analysis in CARE (Table 37) was adjusted for age, gender, smoking status, hypertension, diabetes, body mass index (BMI), and LDL and HDL levels, and adjusted analysis in PROSPER (Table 38) was adjusted for country, gender, age, LDL, HDL, smoking status (current vs. past or never), history of hypertension, and diabetes. Table 37 provides results in CARE, and Table 38 provides results in PROSPER (whether each analysis is unadjusted or adjusted is indicated in the “adjust” column in Table 37, or by “unadj” and “adj” column labels in Tables 38). All the p-values (including Pint values) provided in Tables 37-38 are two-sided p-values.

SMILES: CC[C@H](C)C(=O)O[C@H]1C[C@H](O)C=C2C=C[C@H](C)[C@H](CC[C@@H](O)C[C@@H](O)CC(=O)O)[C@H]21 [pravastatin]
- HR (hazard ratio) for stroke events, pravastatin-treated versus placebo-treated (heterozygous carriers of SNP rs10757274 (chromosome 9p21), adjusted for traditional risk factors): 0.61
- HR (hazard ratio for stroke, pravastatin vs placebo) (adjusted (age, male, current smoking, hypertension, diabetes, BMI, baseline LDL, HDL)): 0.92
- HR (hazard ratio for stroke, pravastatin vs placebo) (unadjusted): 0.85
- EVENTS (number of stroke events) (rs10757274, adjusted analysis, mode REC, genotype GA + AA, pravastatin arm, total 1018): 47
